Paper PMC7060258 (Scientific Reports, 2020)

Columns and labels:
rat = settings: cited from earlier work
[1] = system: murine neuroblastoma Neuro2a cells; assay: Intracellular ROS formation level (H2DCF-DA); assay type: cell-based; settings: 6-OHDA 25 µM alone
Description: We estimated whether rHCIQ2c1 is able to inhibit reactive oxygen species (ROS) production. After incubation of Neuro2a cells with rHCIQ2c1 (up to 10 µM) and 6-OHDA (25 µM), ROS content was evaluated by measurement of dichlorofluorescin intensity.
The intracellular ROS level was detected using 2,7-dichlordihydrofluorescein diacetate (H2DCF-DA) solution (Molecular Probes, final concentration 10 µM). In this study, mouse neuroblastoma Neuro2a cells seeded on 96-well plates were washed twice with serum-free DMEM and thereafter incubated for 1 h in serum-free MEM medium in the presence of compounds in concentrations from 10 pM to 10 µM. Cell were treated with 6-OHDA (25 μM) for 30 min at 37 °C with 5% CO2. Followed by treatment with 6-OHDA, the cells were washed once with PBS. After washing with serum-free DMEM medium, the cells were loaded with H2DCF-DA for 30 min. The intensity of dichlorofluorescin fluorescence was measured with plate reader PHERAstar FS (BMG Labtech, Germany) at λex = 485 nm and λem = 518 nm. The cytoprotective effect of peptides and the increase in cell viability under their action was calculated as a percentage, taking the cell viability treated with 6-OHDA as 100%.

## Nc1ccncc1 [4-aminopyridine]
rat
  Effect on MPTP-induced neurodegeneration and rat behavioral disturbances: suppresses MPTP-induced neurodegeneration and rat behavioral disturbances

## NCCc1cc(O)c(O)cc1O [6-OHDA, 6-hydroxydopamine, reference compound]
[1]
  ROS level: highest ROS level
